Measurements taken from PubChem BioAssay AID2060908 (Molecular Pharmacology Branch, DTP, NCI, 2025).

Tested on: 186277-243-T-J2-PDC complex spheroids, viability
Assay: Anticancer human tumor 186277-243-T-J2-PDC patient-derived colon adenocarcinoma cell line growth inhibition [RAS]
Settings: for IC50: curve of first compound; for viability, T/C: stronger effect = lower value
In short: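 Agents were tested in combination matrices in half-log decrements from a top concentration at or near clinical Cmax (10 microM if undetermined). Targets were multi-cell spheroids of tumour lines plus HUVEC and MSC stromal cells.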

[1] = second compound 0.0316 µM, first compound 0.0316 µM
[2] = second compound 0.0316 µM, first compound 0.1 µM
[3] = second compound 0.0316 µM, first compound 0.316 µM
[4] = second compound 0.0316 µM, first compound 1 µM
[5] = second compound 0.0316 µM, first compound 3.16 µM
[6] = second compound 0.0316 µM, first compound 10 µM
[7] = second compound 0.1 µM, first compound 0.0316 µM
[8] = second compound 0.1 µM, first compound 0.1 µM
[9] = second compound 0.1 µM, first compound 0.316 µM
[10] = second compound 0.1 µM, first compound 1 µM
[11] = second compound 0.1 µM, first compound 3.16 µM
[12] = second compound 0.1 µM, first compound 10 µM
[13] = second compound 0.316 µM, first compound 0.0316 µM
[14] = second compound 0.316 µM, first compound 0.1 µM
[15] = second compound 0.316 µM, first compound 0.316 µM
[16] = second compound 0.316 µM, first compound 1 µM
[17] = second compound 0.316 µM, first compound 3.16 µM
[18] = second compound 0.316 µM, first compound 10 µM
[19] = second compound 1 µM, first compound 0.0316 µM
[20] = second compound 1 µM, first compound 0.1 µM
[21] = second compound 1 µM, first compound 0.316 µM
[22] = second compound 1 µM, first compound 1 µM
[23] = second compound 1 µM, first compound 3.16 µM
[24] = second compound 1 µM, first compound 10 µM
[25] = second compound 3.16 µM, first compound 0.0316 µM
[26] = second compound 3.16 µM, first compound 0.1 µM
[27] = second compound 3.16 µM, first compound 0.316 µM
[28] = second compound 3.16 µM, first compound 1 µM
[29] = second compound 3.16 µM, first compound 3.16 µM
[30] = second compound 3.16 µM, first compound 10 µM
[31] = second compound 10 µM, first compound 0.0316 µM
[32] = second compound 10 µM, first compound 0.1 µM
[33] = second compound 10 µM, first compound 0.316 µM
[34] = second compound 10 µM, first compound 1 µM
[35] = second compound 10 µM, first compound 3.16 µM
[36] = second compound 10 µM, first compound 10 µM
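Also: spheroids exposed to compounds for 7 days before viability read.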

Question: Which IC50 (second compound 0.0316 µM) does the source give for `Cc1nc(N2CCC3(CC2)COC(C)C3N)c(CO)nc1Sc1ccnc(N)c1Cl` (stereo unspecified) + C#Cc1c(F)ccc2cc(O)cc(-c3ncc4c(N5CC6CCC(C5)N6)nc(OCC56CCCN5CC(F)C6)nc4c3F)c12 here?
Answer: 114 nM

Question: What about the IC50 (second compound 0.1 µM) of the same compound?
Answer: < 31.6 nM

Question: And the IC50 (second compound 0.316 µM)?
Answer: < 31.6 nM

Question: What about the IC50 (second compound 1 µM) of the same compound?
Answer: < 31.6 nM

Question: And the IC50 (second compound 3.16 µM)?
Answer: < 31.6 nM

Question: And the IC50 (second compound 10 µM)?
Answer: < 31.6 nM

Question: What about the viability, T/C [1] of the same compound?
Answer: 60.5%

Question: And the viability, T/C [2]?
Answer: 53.8%

Question: What about the viability, T/C [3] of the same compound?
Answer: 23.1%

Question: And the viability, T/C [4]?
Answer: 9.38%

Question: What about the viability, T/C [5] of the same compound?
Answer: 7.2%

Question: What about the viability, T/C [6] of the same compound?
Answer: 5.04%

Question: And the viability, T/C [7]?
Answer: 43.9%

Question: What about the viability, T/C [8] of the same compound?
Answer: 24.9%

Question: And the viability, T/C [9]?
Answer: 9.87%

Question: What about the viability, T/C [10] of the same compound?
Answer: 9.03%

Question: And the viability, T/C [11]?
Answer: 6.97%

Question: And the viability, T/C [12]?
Answer: 6.34%

Question: What about the viability, T/C [13] of the same compound?
Answer: 14.7%

Question: And the viability, T/C [14]?
Answer: 13.1%

Question: What about the viability, T/C [15] of the same compound?
Answer: 9.91%

Question: What about the viability, T/C [16] of the same compound?
Answer: 8%

Question: What about the viability, T/C [17] of the same compound?
Answer: 6.18%

Question: And the viability, T/C [18]?
Answer: 5.92%

Question: And the viability, T/C [19]?
Answer: 12.2%

Question: And the viability, T/C [20]?
Answer: 10.3%

Question: What about the viability, T/C [21] of the same compound?
Answer: 8.18%

Question: What about the viability, T/C [22] of the same compound?
Answer: 5.06%

Question: What about the viability, T/C [23] of the same compound?
Answer: 6.45%

Question: What about the viability, T/C [24] of the same compound?
Answer: 4.66%

Question: And the viability, T/C [25]?
Answer: 8.78%

Question: What about the viability, T/C [26] of the same compound?
Answer: 9.76%

Question: What about the viability, T/C [27] of the same compound?
Answer: 7.42%

Question: What about the viability, T/C [28] of the same compound?
Answer: 6.36%

Question: What about the viability, T/C [29] of the same compound?
Answer: 5.23%

Question: And the viability, T/C [30]?
Answer: 4.36%

Question: And the viability, T/C [31]?
Answer: 7.27%

Question: And the viability, T/C [32]?
Answer: 4.82%

Question: And the viability, T/C [33]?
Answer: 6.12%

Question: And the viability, T/C [34]?
Answer: 4.54%

Question: And the viability, T/C [35]?
Answer: 4.2%

Question: And the viability, T/C [36]?
Answer: 1.83%

Question: `NC1c2ccccc2OC12CCN(c1cnc3c(N4CCCc5ncccc54)n[nH]c3n1)CC2` (stereo unspecified) + C#Cc1c(F)ccc2cc(O)cc(-c3ncc4c(N5CC6CCC(C5)N6)nc(OCC56CCCN5CC(F)C6)nc4c3F)c12 was tested. Which IC50 (second compound 0.0316 µM) did it give?
Answer: < 31.6 nM

Question: And the IC50 (second compound 0.1 µM)?
Answer: < 31.6 nM

Question: And the IC50 (second compound 0.316 µM)?
Answer: < 31.6 nM

Question: What about the IC50 (second compound 1 µM) of the same compound?
Answer: < 31.6 nM

Question: And the IC50 (second compound 3.16 µM)?
Answer: < 31.6 nM

Question: And the IC50 (second compound 10 µM)?
Answer: < 31.6 nM

Question: What about the viability, T/C [1] of the same compound?
Answer: 39.1%

Question: And the viability, T/C [2]?
Answer: 14.9%

Question: What about the viability, T/C [3] of the same compound?
Answer: 8.55%

Question: What about the viability, T/C [4] of the same compound?
Answer: 7.47%

Question: And the viability, T/C [5]?
Answer: 5.16%

Question: And the viability, T/C [6]?
Answer: 3.58%

Question: And the viability, T/C [7]?
Answer: 14.2%

Question: What about the viability, T/C [8] of the same compound?
Answer: 9.2%

Question: And the viability, T/C [9]?
Answer: 7.59%

Question: What about the viability, T/C [10] of the same compound?
Answer: 7.67%

Question: What about the viability, T/C [11] of the same compound?
Answer: 5.13%

Question: What about the viability, T/C [12] of the same compound?
Answer: 3.21%

Question: What about the viability, T/C [13] of the same compound?
Answer: 10.8%

Question: And the viability, T/C [14]?
Answer: 8.96%

Question: And the viability, T/C [15]?
Answer: 7.32%

Question: What about the viability, T/C [16] of the same compound?
Answer: 7.04%

Question: And the viability, T/C [17]?
Answer: 5.5%

Question: What about the viability, T/C [18] of the same compound?
Answer: 3.89%

Question: And the viability, T/C [19]?
Answer: 9.12%

Question: And the viability, T/C [20]?
Answer: 7.57%

Question: What about the viability, T/C [21] of the same compound?
Answer: 7.39%

Question: And the viability, T/C [22]?
Answer: 5.61%

Question: What about the viability, T/C [23] of the same compound?
Answer: 4.48%

Question: And the viability, T/C [24]?
Answer: 3.29%

Question: And the viability, T/C [25]?
Answer: 8.98%

Question: And the viability, T/C [26]?
Answer: 6.65%

Question: What about the viability, T/C [27] of the same compound?
Answer: 5.07%

Question: And the viability, T/C [28]?
Answer: 4.41%

Question: What about the viability, T/C [29] of the same compound?
Answer: 5.32%

Question: And the viability, T/C [30]?
Answer: 2.82%

Question: What about the viability, T/C [31] of the same compound?
Answer: 6.21%

Question: What about the viability, T/C [32] of the same compound?
Answer: 5.08%

Question: And the viability, T/C [33]?
Answer: 3.47%

Question: What about the viability, T/C [34] of the same compound?
Answer: 2.88%

Question: And the viability, T/C [35]?
Answer: 1.6%

Question: What about the viability, T/C [36] of the same compound?
Answer: 0.47%

Question: With `Nc1ccn(C2OC(CO)C(O)C2(F)F)c(=O)n1` (stereo unspecified) + C#Cc1c(F)ccc2cc(O)cc(-c3ncc4c(N5CC6CCC(C5)N6)nc(OCC56CCCN5CC(F)C6)nc4c3F)c12 as the compound, how does the IC50 (second compound 0.0316 µM) read?
Answer: < 3.16 nM

Question: What about the IC50 (second compound 0.1 µM) of the same compound?
Answer: < 3.16 nM

Question: What about the IC50 (second compound 0.316 µM) of the same compound?
Answer: < 3.16 nM

Question: And the IC50 (second compound 1 µM)?
Answer: < 3.16 nM

Question: And the IC50 (second compound 3.16 µM)?
Answer: < 3.16 nM

Question: And the IC50 (second compound 10 µM)?
Answer: < 3.16 nM

Question: And the viability, T/C (second compound 0.0316 µM, first compound 0.00316 µM)?
Answer: 47%

Question: And the viability, T/C (second compound 0.0316 µM, first compound 0.01 µM)?
Answer: 8.41%

Question: And the viability, T/C [1]?
Answer: 7.36%

Question: And the viability, T/C [2]?
Answer: 8.79%

Question: What about the viability, T/C [3] of the same compound?
Answer: 6.46%

Question: What about the viability, T/C [4] of the same compound?
Answer: 8.3%

Question: And the viability, T/C (second compound 0.1 µM, first compound 0.00316 µM)?
Answer: 28.4%

Question: And the viability, T/C (second compound 0.1 µM, first compound 0.01 µM)?
Answer: 8.66%

Question: What about the viability, T/C [7] of the same compound?
Answer: 8.73%

Question: What about the viability, T/C [8] of the same compound?
Answer: 6.07%

Question: And the viability, T/C [9]?
Answer: 7.33%

Question: And the viability, T/C [10]?
Answer: 7.04%

Question: And the viability, T/C (second compound 0.316 µM, first compound 0.00316 µM)?
Answer: 14.2%

Question: And the viability, T/C (second compound 0.316 µM, first compound 0.01 µM)?
Answer: 8.55%

Question: What about the viability, T/C [13] of the same compound?
Answer: 7.4%

Question: And the viability, T/C [14]?
Answer: 7.69%

Question: What about the viability, T/C [15] of the same compound?
Answer: 5.4%

Question: What about the viability, T/C [16] of the same compound?
Answer: 7.34%

Question: What about the viability, T/C (second compound 1 µM, first compound 0.00316 µM) of the same compound?
Answer: 9.92%

Question: What about the viability, T/C (second compound 1 µM, first compound 0.01 µM) of the same compound?
Answer: 7.97%

Question: What about the viability, T/C [19] of the same compound?
Answer: 7.96%

Question: What about the viability, T/C [20] of the same compound?
Answer: 6.96%

Question: And the viability, T/C [21]?
Answer: 7.3%

Question: What about the viability, T/C [22] of the same compound?
Answer: 5.65%

Question: What about the viability, T/C (second compound 3.16 µM, first compound 0.00316 µM) of the same compound?
Answer: 7.24%

Question: What about the viability, T/C (second compound 3.16 µM, first compound 0.01 µM) of the same compound?
Answer: 6.5%

Question: And the viability, T/C [25]?
Answer: 6.06%

Question: What about the viability, T/C [26] of the same compound?
Answer: 5.7%

Question: What about the viability, T/C [27] of the same compound?
Answer: 4.35%

Question: What about the viability, T/C [28] of the same compound?
Answer: 5.91%

Question: And the viability, T/C (second compound 10 µM, first compound 0.00316 µM)?
Answer: 8.28%

Question: What about the viability, T/C (second compound 10 µM, first compound 0.01 µM) of the same compound?
Answer: 7.76%

Question: And the viability, T/C [31]?
Answer: 5.58%

Question: What about the viability, T/C [32] of the same compound?
Answer: 5.8%

Question: And the viability, T/C [33]?
Answer: 5.91%

Question: What about the viability, T/C [34] of the same compound?
Answer: 6.36%
